What was measured:
[1] = test system: SK-BR3/BT474; experiment: CTG cell survival assay, SK-BR3/BT474; format: cell-based; settings: SK-BR3/BT474 cells
How it was run: (§1)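 Cells were exposed to compounds in a 3-fold dilution series, with a top final concentration of 10 uM in 0.1% DMSO. Viable cells were quantified by CellTiter-Glo ATP luminescence.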

[2] = test system: PC-3; experiment: CTG cell survival assay, PC-3; format: cell-based; settings: Homo sapiens, PC-3 cells
How it was run: as §1

[3] = target: mTOR kinase (Homo sapiens (Human), UniProt P42345); experiment: mTOR kinase activity assay (TR-FRET, GFP-4EBP1 substrate); format: biochemical; settings: read-out: Enzyme (mTOR) IC50
mTOR kinase, sequence (P42345 1360-2549): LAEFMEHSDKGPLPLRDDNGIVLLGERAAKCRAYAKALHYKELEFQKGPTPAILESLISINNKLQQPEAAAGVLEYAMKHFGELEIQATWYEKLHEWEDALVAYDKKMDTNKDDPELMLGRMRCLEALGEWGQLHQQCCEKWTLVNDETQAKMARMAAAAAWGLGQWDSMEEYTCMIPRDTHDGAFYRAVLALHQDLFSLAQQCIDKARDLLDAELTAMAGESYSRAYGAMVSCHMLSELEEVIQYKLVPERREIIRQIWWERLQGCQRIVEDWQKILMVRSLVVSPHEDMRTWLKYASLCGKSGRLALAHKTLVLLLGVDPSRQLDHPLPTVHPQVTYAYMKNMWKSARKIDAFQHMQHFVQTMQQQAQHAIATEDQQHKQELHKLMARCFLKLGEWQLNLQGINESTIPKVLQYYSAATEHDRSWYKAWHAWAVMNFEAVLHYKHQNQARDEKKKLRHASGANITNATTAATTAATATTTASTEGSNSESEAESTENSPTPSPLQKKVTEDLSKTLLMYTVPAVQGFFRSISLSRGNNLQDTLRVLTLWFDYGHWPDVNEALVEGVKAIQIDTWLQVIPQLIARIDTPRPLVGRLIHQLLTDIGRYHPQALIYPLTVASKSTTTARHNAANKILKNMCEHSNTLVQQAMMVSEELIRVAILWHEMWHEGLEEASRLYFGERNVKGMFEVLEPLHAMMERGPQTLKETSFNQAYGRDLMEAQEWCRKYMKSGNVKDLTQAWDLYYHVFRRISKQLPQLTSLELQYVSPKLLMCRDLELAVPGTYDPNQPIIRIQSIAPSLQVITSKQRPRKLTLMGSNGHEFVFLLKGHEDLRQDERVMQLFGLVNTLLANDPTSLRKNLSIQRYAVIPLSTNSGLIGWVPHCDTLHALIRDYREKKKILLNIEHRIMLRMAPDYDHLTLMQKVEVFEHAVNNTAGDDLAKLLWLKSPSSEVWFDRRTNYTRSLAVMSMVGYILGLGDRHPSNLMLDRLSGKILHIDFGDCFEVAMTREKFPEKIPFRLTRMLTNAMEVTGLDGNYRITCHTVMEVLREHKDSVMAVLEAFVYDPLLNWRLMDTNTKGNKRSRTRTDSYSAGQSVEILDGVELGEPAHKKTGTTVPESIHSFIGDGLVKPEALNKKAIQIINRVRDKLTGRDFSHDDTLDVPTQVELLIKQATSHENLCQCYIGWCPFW
Method: 1. mTOR Kinase Activity Assay: The inhibition of the mTOR protein kinase activity by the compounds was determined by the enzymatic activity assay in vitro. The detection kit supplied by Invitrogen was used to detect the inhibition of the activity of the mTOR […]. The principle of the assay was as follows: mTOR kinase, fluorescein-labeled substrate and ATP were mixed, and after the reaction, EDTA and terbium-labeled first antibody were added. During the chemical reaction process of the mTOR kinase, the antibody recognized the phosphorylated and fluorescein-labeled substrate, and then the “time-resolved fluorescence resonance energy transfer” (TR-FRET) effect was enhanced. TR-FRET effect was calculated as the ratio of signals from the acceptor fluorescein to signals from the donor terbium. The amount of the antibody bound to the tracer was directly proportional to the amount of the phosphorylated substrate after the reaction. In this way, the kinase activity can be detected. In this assay, the substrate of the mTOR kinase was green fluorescent protein-coupled 4E binding protein 1 (GFP-4EBP1).
1.1 Materials and Instruments:
4-Hydroxyethylpiperazine ethanesulfonic acid (HEPES, Sigma, Cat# SH3375), ethylene glycol-bis-(2-aminoethylether)-tetraacetic acid (EGTA, Sigma, Cat# E3889), manganese chloride (MnCl2, Sigma, Cat# M1787), Tween-20 (Tween-20, Amresco), 1,4-dithiothreitol (DTT, Merck, CB233155),

[4] = test system: MV-4-11; experiment: CTG cell survival assay, MV-4-11; format: cell-based; settings: Homo sapiens, MV4-11, MV-4-11 cells
Description: 2. CTG Cell Survival Assay:
ATP is necessarily produced during the metabolic activities of viable cells, and there is a linear relationship between the content of ATP and the number of viable cells. Cell viability assay by CTG chemiluminescence is a general method for detecting the number of viable cells in the culture cells based on this principle. The addition of the CellTiter-Glo (CTG) reagent may induce cell lysis and produce chemiluminescent signals directly proportional to the amount of ATP in the well-plate, and thereby the cell proliferation activity in the well-plate can be measured by the reading values from the chemiluminescence.
2.1 Experimental Materials and Instruments:
2.1.1 Experimental Materials: compounds to be tested, cell basal culture medium, RPMI Medium 1640 (Invitrogen, Cat#11875-093), fetal calf serum (FBS): Hyclone FETAL BOVINE SERUM DEFINED (Invitrogen, Cat#SH30070.03), antibiotics: Penicilin Streptomycin (Invitrogen, Cat#15140-122), phosphate buffer (Corning Cellgro, Cat#R21-040-CV), cell digestive solution: 0.25% Trypsin-EDTA (Invitrogen, Cat#25200-056), CTG detection kit: Promega, Cat#G7571, flat-bottom 96-well black bottom plate: NUNC, Cat#165305, T25 culture flask: NUNC, Cat#156367, T75 culture flask: NUNC, Cat#156439
2.2 Experimental Instruments: Carbon Dioxide Incubator, SANYO-MCO-20AIC, Biosafe Cabinet: BSC-1360-LIIA2, Table-Top High-Speed Refrigerated Centrifuge: SorvallST 16R, Microplate Rapid Oscillator: QB-9001, M3 Reader: SpectraMax M3, Microscope: OLYMPUS-CKX41/CKX31.
2.3 Preparation of Solutions and Reagents: Formulation of cell growth medium: RPMI Medium 1640+10% FBS+antibiotics, others: trypsin digestive solution, phosphate buffer (PBS), DMSO, CTG detection kit.
2.4 Experimental Procedure: • 1.4.1 Cell Thawing: Cryogenic vials were removed from the liquid nitrogen container, directly immersed in a water bath at 37° C., and shaked from time to time to thaw. The cryogenic vials were removed from the water bath at 37° C., and transferred to the biosafe cabinet. Their lids were opened, and the cell suspensions were aspirated with pipettes, added to centrifuge tubes, and then added with more than 10 volumes of culture solution, mixed well; centrifuged for 5 min at 1000 rpm; the supernatant was discarded, and medium containing cell growth was added to resuspend cells. All cell suspensions were seeded to the T25 culture flasks and static cultured in an incubator at 37° C.; the culture solution were changed once on the next day, and continued to be cultured. • 2.4.2 Cell Passaging: After cells were grown to logarithmic phase and were 80%-90% confluent, cells were removed and placed in the biosafe cabinet, the old culture solution was discarded, and the cells were wetted and washed with PBS once or twice. An appropriate amount of 0.25% Trypsin-EDTA solution was added to the culture flasks. The flasks were placed in the carbon dioxide incubator at 37° C. for 2-5 min. An appropriate amount of cell growth medium containing 10% PBS was added to terminate the digestion, lightly swished, and transferred to the centrifuge tubes and centrifuged for 5 min at 1000 rpm. The cells were prepare (into cell suspensions for passaging and experimental use. • 2.4.3 Cell Plating • 2.4.3.1 A cell suspension was prepared: After cells were grown to logarithmic phase and were 80%-90% confluent, the cells were removed to the biosafe cabinet, and the old culture solution was discarded, then the cells were wetted and washed with PBS once or twice. An appropriate amount of 0.25% Trypsin-EDTA solution was added to the culture flask. The flask was placed in a carbon dioxide incubator at 37° C. for 2-5 min. An appropriate amount of the cell growth medium containing 10% PBS was added to terminate digestion, and was lightly swished. The solution was transferred to a centrifuge tube, centrifuged for 5 min at 1000 rpm, and counted. […]

SMILES	EC50 [1] [nM]	EC50 [2] [nM]	IC50 [3] [nM]	EC50 [4] [nM]
C[C@H](O)C(=O)N1CCCC(n2c(=O)n(C)c3cnc4ccc(-c5ccc(-c6cnn(C)c6)nc5)cc4c32)C1 (stereo partly drawn) [Example 4, 1-(1-((S)-2-hydroxypropionyl)piperidin-3-yl)-3-methyl-8-(6-(1-methyl-1H-pyrazol-4-yl)pyridin-3-yl)-1H-imidazo[4,5-c]quinolin-2(3H)-one]	< 500	< 200	10 to 100	< 500
C[C@@H](O)C(=O)N1CCCC(n2c(=O)n(C)c3cnc4ccc(-c5ccc(-c6cnn(C)c6)nc5)cc4c32)C1 (stereo partly drawn) [Example 5, 1-(1-((R)-2-hydroxypropionyl)piperidin-3-yl)-3-methyl-8-(6-(1-methyl-1H-pyrazol-4-yl)pyridin-3-yl)-1H-imidazo[4,5-c]quinolin-2(3H)-one]	< 200	< 500	< 10	< 500
Cn1cc(-c2ccc(-c3ccc4ncc5c(c4c3)n(C3CCN(S(C)(=O)=O)C3)c(=O)n5C)cn2)cn1 (stereo not drawn) [Example 6, 3-methyl-8-(6-(1-methyl-1H-pyrazol-4-yl)pyridin-3-yl)-1-(1-(methanesulfonyl)pyrrolidin-3-yl)-1H-imidazo[4,5-c]quinolin-2 (3H)-one]	< 50	< 50	< 10	< 200
CCN1CCC(n2c(=O)n(C)c3cnc4ccc(-c5ccc(-c6cnn(C)c6)nc5)cc4c32)C1 (stereo not drawn) [Example 10, 1-(1-ethylpyrrolidin-3-yl)-3-methyl-8-(6-(1-methyl-1H-pyrazol-4-yl)pyridin-3-yl)-1H-imidazo[4,5-c]quinolin-2(3H)-one]	< 1000	< 200	100 to 1000	< 1000
Cc1ccc(S(=O)(=O)N2CCC(n3c(=O)n(C)c4cnc5ccc(-c6ccc(-c7cnn(C)c7)nc6)cc5c43)C2)cc1 (stereo not drawn) [Example 14, 3-methyl-8-(6-(1-methyl-1H-pyrazol-4-yl)pyridin-3-yl)-1-(1-p-toluenesulfonylpyrrolidin-3-yl)-1H-imidazo[4,5-c]quinolin-2(3H)-one]	< 200	< 1000	100 to 1000	–
Cn1cc(-c2ccc(-c3ccc4ncc5c(c4c3)n(C3CCN(S(N)(=O)=O)C3)c(=O)n5C)cn2)cn1 (stereo not drawn) [Example 15, 3-(3-methyl-8-(6-(1-methyl-1H-pyrazol-4-yl)pyridin-3-yl)-2-oxo-2,3-dihydro-1H-imidazo[4,5-c]quinolin-1-yl)pyrrolidine-1-sulfamide]	< 1000	< 500	100 to 1000	–
Cn1cc(-c2ccc(-c3ccc4ncc5c(c4c3)n([C@H]3CC[C@H](O)CC3)c(=O)n5C)cn2)cn1 [Example 17, 1-((1r,4r)-4-hydroxycyclohexyl)-3-methyl-8-(6-(1-methyl-1H-pyrazol-4-yl)pyridin-3-yl)-1H-imidazo[4,5-c]quinolin-2(3H)-one]	< 200	< 100	< 10	< 500
COc1ncc(-c2ccc3ncc4c(c3c2)n([C@H]2CC[C@@H](O)CC2)c(=O)n4C)cc1C [Example 20, 1-((1s,4s)-4-hydroxycyclohexyl)-8-(6-methoxyl-5-methylpyridin-3-yl)-3-methyl-1H-imidazo[4,5-c]quinolin-2(3H)-one]	< 500	< 200	10 to 100	< 200
Cn1c(=O)n([C@H]2CC[C@@H](O)CC2)c2c3cc(-c4cnn(-c5ccccc5)c4)ccc3ncc21 [Example 21, 1-((1s,4s)-4-hydroxycyclohexyl)-3-methyl-8-(1-phenyl-1H-pyrazol-4-yl)-1H-imidazo[4,5-c]quinolin-2(3H)-one]	< 500	< 500	10 to 100	< 200
Cc1ccc(-c2ccc3ncc4c(c3c2)n([C@H]2CC[C@@H](O)CC2)c(=O)n4C)cn1 [Example 22, 1-((1s,4s)-4-hydroxycyclohexyl)-3-methyl-8-(6-methylpyridin-3-yl)-1H-imidazo[4,5-c]quinolin-2(3H)-one]	< 200	< 200	10 to 100	< 200
Cn1c(=O)n([C@H]2CC[C@H](O)CC2)c2c3cc(-c4cnn(-c5ccccc5)c4)ccc3ncc21 [Example 23, 1-((1r,4r)-4-hydroxycyclohexyl)-3-methyl-8-(1-phenyl-1H-pyrazol-4-yl)-1H-imidazo[4,5-c]quinolin-2(3H)-one]	< 500	< 200	10 to 100	< 500
Cn1c(=O)n([C@H]2CC[C@@H](O)CC2)c2c3cc(-c4ccc(N)nc4)ccc3ncc21 [Example 26, 8-(6-aminopyridin-3-yl)1-((1s,4s)-4-hydroxycyclohexyl)-3-methyl-1H-imidazo[4,5-c]quinolin-2(3H)-one]	< 200	–	< 10	< 50
CCS(=O)(=O)N1CC[C@H](n2c(=O)n(C)c3cnc4ccc(-c5ccc(-c6cnn(C)c6)nc5)cc4c32)C1 [Example 29, (S)-1-(1-(ethylsulfonyl)pyrrolidin-3-yl)-3-methyl-8-(6-(1-methyl-1H-pyrazol-4-yl)pyridin-3-yl)-1H-imidazo[4,5-c]quinolin-2(3H)-one]	< 100	–	< 10	< 100
Cn1c(=O)n([C@H]2CCN(S(C)(=O)=O)C2)c2c3cc(-c4ccc(-c5ccccc5)nc4)ccc3ncc21 [Example 30, (S)-3-methyl-1-(1-(methanesulfonyl)pyrrolidin-3-yl)-8-(6-phenylpyridin-3-yl)-1H-imidazo[4,5-c]quinolin-2(3H)-one]	< 100	–	< 10	< 100
[2H]C([2H])([2H])n1c(=O)n(C2CCCN(S(C)(=O)=O)C2)c2c3cc(-c4ccc(-c5cnn(C)c5)nc4)ccc3ncc21 (stereo not drawn) [Example 36, 3-deuteromethyl-8-(6-(1-methyl-1H-pyrazol-4-yl)pyridin-3-yl)-1-(1-(methanesulfonyl)piperidin-3-yl)-1H-imidazo[4,5-c]quinolin-2(3H)-one]	< 500	–	< 10	< 200
Cn1cc(-c2ccc(-c3ccc4ncc5c(c4n3)n(C3CCCN(S(C)(=O)=O)C3)c(=O)n5C)cn2)cn1 (stereo not drawn) [Example 37, 3-methyl-8-(6-(1-methyl-1H-pyrazol-4-yl)pyridin-3-yl)-1-(1-(methanesulfonyl)piperidin-3-yl)-1H-imidazo[4,5-c][1,5]naphthyridin-2(3H)-one]	< 50	–	< 10	< 50

— US10047084B2, “Imidazolone derivatives, pharmaceutical compositions and uses thereof” (BEIJING FORELANDPHARMA CO. LTD., priority 2013, dated 2018)
